Assays:
[1] = system: SH-SY5Y human neuroblastoma cells; assay: Neurite outgrowth of SH-SY5Y cells in the presence of NGF; type: cell-based; conditions: for Mean Length of Top 50% of Neuritic Processes: 168 hours; for neurite outgrowth, effect of the compound: with NGF, concentration dependence
Method: This Example illustrates that FK506 and geldanamycin promote nerve regeneration by a common mechanism. SH-SY5Y human neuroblastoma cells were maintained in DMEM medium (GIBCO) supplemented with 10% fetal calf serum (SIGMA), 50 IU/mL penicillin, and […] streptomycin (GIBCO) at 37° C. in 7% CO2. Cells were plated in six-well plates at 1×10^6 cells/well and treated with […] aphidicolin (SIGMA). At five days, cells were washed, treated with nerve growth factor (NGF) (Boehringer Mannheim, Indianapolis, Ind.) at 10 ng/mL ([…]) (Calbiochem-Novabiochem Int'l., La Jolla, Calif.) and/or geldanamycin (0.1, 1, and 10 nM) (Calbiochem-Novabiochem, La Jolla, Calif.) dissolved in the DMEM medium. Media was changed at 96 hours and replaced with fresh media containing the compounds (NGF plus FK506 and/or geldanamycin) for an additional 72 hours (total time, 168 hours). The top 50% of axonal lengths were selected for statistical analysis. All experiments were run in duplicate wells and repeated at least twice for reproducibility.
(§1) For analysis of neurite process length of cells, 20 fields per well were randomly photographed at 72 and 168 hours. Neurite lengths were measured on photographic prints using a Houston Instrument HI-PAD digitizing tablet connected to an IBM XT computer with appropriate software (Bioquant IV, R&M Biometrics, Nashville, Tenn.); only those processes greater than two times the cell body length were measured. Data from identically treated wells were not different and were therefore combined. […] Histograms were compared using a Mann-Whitney U test, which makes no assumptions about the shape of the distribution.
Neuroblastoma SH-SY5Y cells were used to examine human neurite outgrowth in vitro and to explore which neuroimmunophilin mediates the effect.

[2] = system: hippocampal neurons of FKBP-12 knockout mice; assay: Axonal length in primary neuronal hippocampal cultures from FKBP-12 knockout mice; type: cell-based
Method: (§2) FKBP-12 knockout mice (Shou, et al., Nature 391:489, 1998) were used to test whether FKBP-12 is necessary for FK506's ability to increase nerve elongation. Such mice usually die from severe cardiomyopathy between embryonic day 14.5 (E14.5) and birth, consistent with the known association between FKBP-12 and calcium release channels. […] Primary neuronal hippocampal cultures were prepared from E18.5 homozygote FKBP-12 knockout and wild-type mice.

[3] = system: hippocampal neurons of wild-type mice; assay: Axonal length in primary neuronal hippocampal cultures from wild-type mice; type: cell-based
Method: as §2

sciatic nerve = conditions: rat, following a sciatic nerve crush lesion; cited from earlier work
hippocampal cells = assay: Neurite outgrowth of hippocampal cells after 72 hours; type: cell-based
Method: as §1
Utilizing the in vitro assay described in Example 2, the effect of radicicol on neurite outgrowth was investigated. Hippocampal cells were treated with radicicol at a concentration of 0.1 ng/mL and at a concentration of 10 ng/mL. The neurite outgrowth for radicicol treated cells was compared to the outgrowth for untreated cells and for cells treated with 10 ng/mL of NGF.
Utilizing the in vitro assay described in Example 2, the effect of heat alone or in combination with various compounds on neurite outgrowth was investigated. […] FIG. 5 also illustrates that a combination of heat treatment and treatment with both NGF, and Hsp-90 antibodies is not as effective as the combination of heat and NGF treatment. […]

[4] = geldanamycin 10 nM co-treatment

Molecule: C=CC[C@@H]1/C=C(\C)C[C@H](C)C[C@H](OC)[C@H]2O[C@@](O)(C(=O)C(=O)N3CCCC[C@H]3C(=O)O[C@H](/C(C)=C/[C@@H]3CC[C@@H](O)[C@H](OC)C3)[C@H](C)[C@@H](O)CC1=O)[C@H](C)C[C@@H]2OC [FK506]
- Mean Length of Top 50% of Neuritic Processes ([1]; FK506 10 nM + NGF 10 ng/mL): 156 µm
- neurite outgrowth (cumulative histograms of neurite lengths) ([1]; FK506 10 pM-10 nM): increases neurite outgrowth
- neurite outgrowth (cumulative histograms of neurite lengths) ([1]; FK506 100 nM): less effective
- neurite outgrowth (cumulative histograms of neurite lengths) ([1]; FK506 1000 nM or greater): neurite outgrowth was inhibited
- neurite outgrowth, effect of the compound [1]: stimulate neurite outgrowth in a concentration dependent manner
- Mean axonal lengths of hippocampal neurons ([2]; FK506-treated cultures, FKBP-12 knockout, mean±S.E.M.): 264±18.2
- increase over non-treated values ([2]; FKBP-12 knockout cells): 30%
- Mean axonal lengths of hippocampal neurons ([3]; FK506-treated cultures, wild-type, mean±S.E.M.): 276±11.1
- increase over non-treated values ([3]; wild-type cells): 26%
- functional recovery and axonal regeneration (sciatic nerve): speed functional recovery and axonal regeneration in the rat in a dose-dependent manner

Molecule: COC1=C2C[C@@H](C)C[C@H](OC)[C@H](O)[C@@H](C)/C=C(\C)[C@H](OC(N)=O)[C@@H](OC)/C=C\C=C(/C)C(=O)NC(=CC1=O)C2=O [Geldanamycin, geldanamycin]
- Mean Length of Top 50% of Neuritic Processes ([1]; geldanamycin 1 nM + NGF 10 ng/mL): 128 µm
- Mean Length of Top 50% of Neuritic Processes ([1]; geldanamycin 10 nM + NGF 10 ng/mL): 110 µm
- effect on neurite outgrowth promotion by FK506, dexamethasone or β-estradiol ([1]; geldanamycin 0.1 nM co-treatment): less effective in inhibiting the neurite outgrowth-promoting effect of all these compounds
- effect on neurite outgrowth promotion by FK506, dexamethasone or β-estradiol [1, 4]: inhibited neurite outgrowth promotion by FK506 , dexamethasone or β-estradiol
- effect on neurite outgrowth promotion by FKBP-52 antibody [1, 4]: enhanced the neurite outgrowth-promoting effect of the FKBP-52 antibody
- neurite outgrowth ([1]; geldanamycin 0.1-10 nM alone): increased neurite outgrowth in a concentration-dependent fashion
- neurite outgrowth, effect of the compound [1]: stimulate neurite outgrowth in a concentration dependent manner

Molecule: COc1cccc(-c2cc(=O)c3ccccc3o2)c1N [PD 098059]
- effect on neurite outgrowth by NGF and FK-506 (FIG. 6) (hippocampal cells; 2 concentrations): blocks neurite outgrowth by NGF and FK-506 in a concentration dependent fashion
- effect on neurite outgrowth by radicicol (FIG. 7) (hippocampal cells; 2 concentrations): blocks the action of radicicol in a concentration dependent fashion
- effect on neurite outgrowth by radicicol (FIG. 7) (hippocampal cells; highest concentration): almost completely blocks activity

Molecule: [Na+].[Na+].[O]=[Mo](=[O])([O-])[O-] [molybdate, sodium molybdate]
- effect on neurite outgrowth promotion by FK506 ([1]; molybdate 20 mM): reduced the neurite outgrowth promotion elicited by FK506
- effect on neurite outgrowth promotion by FKBP-52 antibody ([1]; molybdate 20 mM): inhibited the neurite outgrowth-promoting effects of FKBP-52 antibody
- effect on neurite outgrowth promotion by β-estradiol and geldanamycin ([1]; molybdate 20 mM): completely [Mann-Whitney U test (α=0.05)] inhibited the neurite outgrowth-promoting effect of β-estradiol and geldanamycin
- neurite outgrowth-promoting effect of molybdate in the presence of dexamethasone ([1]; molybdate 20 mM): significantly [Mann-Whitney U test (α=0.05)] reduced compared to molybdate alone
- neurite outgrowth ([1]; molybdate 20 mM itself): agonist effect on neurite outgrowth

Molecule: C[C@@H]1C[C@H]2O[C@@H]2/C=C\C=C\C(=O)Cc2c(Cl)c(O)cc(O)c2C(=O)O1 [radicicol]
- neurite outgrowth (cumulative histogram, FIG. 3) (hippocampal cells; radicicol 0.1 ng/mL and 10 ng/mL vs NGF 10 ng/mL): more effective than NGF alone in stimulating outgrowth

Molecule: C[C@]12CC[C@@H]3c4ccc(O)cc4CC[C@H]3[C@@H]1CC[C@@H]2O [β-estradiol]
- neurite outgrowth compared with dexamethasone ([1]; 50 nM each): greater positive effect on neurite outgrowth than dexamethasone (50 nM)
- neurite outgrowth, effect of the compound [1]: significantly increased neurite outgrowth in SH-SY5Y cells in a concentration-dependent manner

B1: NGF: nerve growth factor (Boehringer Mannheim) (protein, UniProt P01139 122-241, looked up)
Beta-nerve growth factor: SSTHPVFHMGEFSVCDSVSVWVGDKTTATDIKGKEVTVLAEVNINNSVFRQYFFETKCRASNPVESGCRGIDSKHWNSYCTTTHTFVKALTTDEKQAAWRFIRIDTACVCVLSRKATRRG
modifications: Beta-nerve growth factor
- Mean Length of Top 50% of Neuritic Processes ([1]; NGF 10 ng/mL alone): 108 µm
- neurite outgrowth (cumulative histogram, FIG. 4) (hippocampal cells; NGF in combination with heat): more effective than either heat or NGF treatment alone in stimulating neurite outgrowth

From US6734211B1, “Compositions and methods for promoting nerve regeneration” (Oregon Health & Sciences University, priority 1999, dated 2004)
